The nature of test [1]: Hydroxyapatite (HA) affinity/binding assay of 2,2′-BPBPA and nano-Ca@2,2′-BPBPA. To be noted: for Amount (%) bound to HA, Mean: HA 20 mg, duplicate. The procedure: (§1) Affinity assays experiment. Synthetic HA was employed to explore the affinity of nano-Ca@2,2′-BPBPA to the bone microenvironment. HA (20 mg) was exposed to nano-Ca@2,2′-BPBPA (5 mL, 0.5 mg/mL). The 2,2′-BPBPA (0.5 mg/mL) and HA (20 mg) were used as control groups. All experimental and control groups were left under constant stirring (150 rpm) for 0-12 d. Finally, the supernatant was collected, centrifuged (5 min, 1500 rpm), and the absorbance was measured at λmax=299 nm of maximum absorption (1, 2, 3, 4, 7, 8, 9, 10, 11, 12 d) to determine the amount (%) of 2,2′-BPBPA bound to HA after each period. The experiment was performed in duplicate. Once the experiment was completed, HA, HA-2,2′-BPBPA, and HA-nano-Ca@2,2′-BPBPA were characterized by SEM-EDS and PXRD.
The affinity of nano-Ca@22′-BPBPA to the bone was investigated using hydroxyapatite (HA). The HA is the main constituent of the bone microenvironment; this mineral represents an ideal target when treating bone-related diseases.^45 The binding assay of the nano-Ca@2,2′-BPBPA to HA was performed in PBS at 37° C., the HA as a received reagent was exposed to this nano-BPCCs for 0-12 d. The binding assay for 2,2′-BPBPA to HA was determined as a control experiment. The affinity of these materials to HA was assessed by measuring the absorbance of the supernatant at the lambda max (λmax=299 nm) to quantify the decrease in the 2,2′-BPBPA concentration over time. Binding curves (FIG. 163A) reveal that 2,2′-BPBPA and the nano-Ca@2,2′-BPBPA presented between 32 to 37% binding to HA after 2 d. The ligand reaches about 90% of binding to HA after 7 d while the nano-Ca@2,2′-BPBPA offers a 93% of binding to this mineral after 8 d.
as §1, with “Binding assay with hydroxyapatite (HA).” for “Affinity assays experiment.”, “Experiment” for “The experiment”, “PXRD. Table 35 present the percentage (%) of 2,2′-BPBPA and nano-Ca@2,2′-BPBPA bound to HA in PBS. FIGS. 200-201 show the binding curves for 2,2′-BPBPA and nano-Ca@2,2′-BPBPA.” for “PXRD.”

Test in test [2]: as above
To be noted: 0.5 mg/mL, HA 20 mg, PBS, duplicate.

Regarding `O=P(O)(O)c1ccc(-c2ccc(P(=O)(O)O)cn2)nc1` [2,2′-BPBPA, 2,2′-bipyridine-5,5′-bisphosphonic acid], the “maximum binding to HA” value in test [1] (0.5 mg/mL) is given as 99%. Further, in test [1] (0.5 mg/mL), the “time to reach maximum binding to HA” value amounted to 12 days. The “Amount (%) bound to HA, Mean” value in test [1] (0.5 mg/mL, PBS, 1 d) was 18%; in test [1] (0.5 mg/mL, PBS, 2 d), 37%; in test [1] (0.5 mg/mL, PBS, 3 d), 66%; in test [1] (0.5 mg/mL, PBS, 4 d), 71%; in test [1] (0.5 mg/mL, PBS, 7 d), 90%; in test [1] (0.5 mg/mL, PBS, 8 d) it was 99%. Moreover, the “Amount (%) bound to HA, Mean” value in test [1] (0.5 mg/mL, PBS, 11 d) worked out at 99%; in test [1] (0.5 mg/mL, PBS, 12 d) it was 99%; in test [2] (5 d) it was 82%; in test [2] (6 d), 88%. Also, the “bound to HA” value in test [1] (PBS, 37 °C, 7 d) is “about 90%”.

The values are drawn from patent publication US20250296942A1, “Phosphonate-Based Coordination Complexes and Methods of Preparation and Use Thereof” (University of Puerto Rico, priority 2021, published 2025).
